# Assay results as given in publication PMC6301270 (MedChemComm, 2018).
# Test system: T.b. brucei (strain 427) bloodstream form parasites
# Assay: T.b. brucei single concentration screen (10 μM)
# Settings: Trypanosoma brucei, read-out: T.b.brucei % viability (10 µM)
row,Compound,viability at 10 µM
1,"COc1ccccc1CNC(=O)c1cc(C2CC2)nc2c1cnn2C(C)C [MMV020517, COc1ccccc1CNC(=O)c2cc(nc3c2cnn3C(C)C)C4CC4]",93%
2,"Cc1cc2ccccc2n1CC(=O)N1CC(C(=O)N2CCCCC2)Oc2ccccc21 (centres unmarked) [MMV020520, Cc1cc2ccccc2n1CC(=O)N3CC(Oc4ccccc34)C(=O)N5CCCCC5]",69%
3,"O=C(NC1CC1)c1ccc(N2CCOc3ccc(Cl)cc32)s1 [MMV020537, Clc1ccc2OCCN(c3ccc(s3)C(=O)NC4CC4)c2c1]",97%
4,"CC(C)C(NC(=O)Cc1cccc2ccccc12)C(=O)Nc1cccc(C#N)c1 (centres unmarked) [MMV020591, CC(C)C(NC(=O)Cc1cccc2ccccc12)C(=O)Nc3cccc(c3)C#N]",93%
5,"Cc1noc(C)c1C(=O)N1CCCC(c2[nH]c3c(C)cccc3c2-c2ccncc2)C1 (centres unmarked) [MMV020623, Cc1onc(C)c1C(=O)N2CCCC(C2)c3[nH]c4c(C)cccc4c3c5ccncc5]",78%
6,"COc1ccc(-c2cncc3ccc(C(=O)NCCCn4ccnc4)nc23)cc1 [MMV020670, COc1ccc(cc1)c2cncc3ccc(nc23)C(=O)NCCCn4ccnc4]",51%
7,"COc1ccc(Cl)cc1NC(=O)CN(C)C(=O)c1cnn(-c2ccccc2)n1 [MMV020710, COc1ccc(Cl)cc1NC(=O)CN(C)C(=O)c2cnn(n2)c3ccccc3]",103%
8,"CC(C)(C)c1cc(C(=O)Nc2cccnc2)cc(C(=O)Nc2cccnc2)c1 [MMV020982, CC(C)(C)c1cc(cc(c1)C(=O)Nc2cccnc2)C(=O)Nc3cccnc3]",83%
9,"CO/C=C(/C(=O)OC)c1ccccc1Oc1cc(Oc2ccccc2C#N)ncn1 [MMV021057, CO\C=C(\C(=O)OC)/c1ccccc1Oc2cc(Oc3ccccc3C#N)ncn2]",103%
10,"Cc1cc(NCC(C)C)c2n[nH]c(-c3ccccc3)c2n1 [MMV021375, CC(C)CNc1cc(nc2c([nH]nc12)-c1ccccc1)C]",64%
11,"Cc1cc(NCCc2ccccc2)nc(NC(=N)Nc2ccc(Cl)cc2)n1 [MMV021660, Cc1cc(NCCc2ccccc2)nc(NC(=N)Nc3ccc(Cl)cc3)n1]",47%
12,"CCN(CC)CCCN1CCN(C(=O)c2cccc(-c3noc(C(F)(F)F)n3)c2)CC1 [MMV022236, CCN(CC)CCCN1CCN(CC1)C(=O)c2cccc(c2)c3noc(n3)C(F)(F)F]",103%
13,"c1ccc2c(c1)CN(CC1CC1)CC1(CCN(Cc3c[nH]c4cnccc34)CC1)O2 [MMV023183, C(C1CC1)N2Cc3ccccc3OC4(CCN(Cc5c[nH]c6cnccc56)CC4)C2]",93%
14,"Cc1nc(-c2cccc(NCc3ccccc3)c2)[nH]c1C [MMV023227, Cc1nc([nH]c1C)c2cccc(NCc3ccccc3)c2]",102%
15,"Nc1ncc(-c2cn[nH]c2)cc1-c1nc2cc(Cl)cnc2[nH]1 [MMV023370, Nc1ncc(cc1c2nc3cc(Cl)cnc3[nH]2)c4cn[nH]c4]",88%
16,"O=C(NC1CCN(c2ccnc3ccccc23)C1)c1cccc(C(F)(F)F)c1 (centres unmarked) [MMV023388, FC(F)(F)c1cccc(c1)C(=O)NC2CCN(C2)c3ccnc4ccccc34]",78%
17,"NS(=O)(=O)c1cccc(-c2ccc3ncc(N4CCOCC4)nc3c2)c1 [MMV023860, NS(=O)(=O)c1cccc(c1)c2ccc3ncc(nc3c2)N4CCOCC4]",110%
18,"CC(C)(C)c1cc(C(=O)N2CCN(c3nccnc3C#N)CC2)n(Cc2ccccc2)n1 [MMV023949, CC(C)(C)c1cc(C(=O)N2CCN(CC2)c3nccnc3C#N)n(Cc4ccccc4)n1]",115%
19,"O=C(Nc1cccc(-c2ccc(NCCCN3CCCC3)nc2)c1)c1ccccc1 [MMV023953, O=C(Nc1cccc(c1)c2ccc(NCCCN3CCCC3)nc2)c4ccccc4]",57%

row,Compound,viability at 10 µM
1,"c1cncc(NCc2ccc(-c3cc4ccncc4cc3OC3CCNCC3)s2)c1 [MMV023969, C(Nc1cccnc1)c2ccc(s2)c3cc4ccncc4cc3OC5CCNCC5]",79%
2,"COc1ccc(-c2cnc3ccc(N4CCCC4)nn23)cc1OC [MMV023985, COc1ccc(cc1OC)c2cnc3ccc(nn23)N4CCCC4]",91%
3,"NS(=O)(=O)c1cncc(-c2ccc3nccc(-c4cn[nH]c4)c3n2)c1 [MMV024101, NS(=O)(=O)c1cncc(c1)c2ccc3nccc(c4cn[nH]c4)c3n2]",36%
4,"Cc1ccc(S(=O)(=O)n2cc(-c3ccnc(N)c3)c3cc(Br)cnc32)cc1 [MMV024114, Cc1ccc(cc1)S(=O)(=O)n2cc(c3ccnc(N)c3)c4cc(Br)cnc24]",52%
5,"CN(C)CCNC(=O)N1CCCN(c2ncnc3cc(-c4ccccc4)sc23)CC1 [MMV024195, CN(C)CCNC(=O)N1CCCN(CC1)c2ncnc3cc(sc23)c4ccccc4]",79%
6,"O=C(NC1CC1)c1ccc(N2CCC(Cc3ccccc3)CC2)nc1 [MMV024397, O=C(NC1CC1)c2ccc(nc2)N3CCC(Cc4ccccc4)CC3]",72%
7,"O=C(Nc1cccc(Cl)c1)c1cnc(N2CCN(c3ccncc3)CC2)c(Cl)c1 [MMV024406, Clc1cccc(NC(=O)c2cnc(N3CCN(CC3)c4ccncc4)c(Cl)c2)c1]",63%
8,"CN(C(=O)c1cc2c(-c3cncnc3)cccc2[nH]1)c1ccccc1 [MMV024443, CN(C(=O)c1cc2c(cccc2[nH]1)c3cncnc3)c4ccccc4]",59%
9,"Cc1cccc(C(=O)Nc2ccnc(N(C)C3CCN(CC(C)C)CC3)c2)c1 [MMV024829, CC(C)CN1CCC(CC1)N(C)c2cc(NC(=O)c3cccc(C)c3)ccn2]",56%
10,"O=C(Nc1ccc(N2CCNCC2)nc1)c1oc(-c2ccccc2)nc1C(F)(F)F [MMV024937, FC(F)(F)c1nc(oc1C(=O)Nc2ccc(nc2)N3CCNCC3)c4ccccc4]",77%
11,"CS(=O)(=O)c1cccc(-c2cnc3[nH]cc(-c4ccc(CCC(=O)O)cc4)c3c2)c1 [MMV026020, CS(=O)(=O)c1cccc(c1)c2cnc3[nH]cc(c4ccc(CCC(=O)O)cc4)c3c2]",61%
12,"Nc1nccc2ccc(Oc3ccncc3)cc12 [MMV026313, Nc1nccc2ccc(Oc3ccncc3)cc12]",97%
13,"CCn1ncc2c(NC3CCOCC3)c(CNC(=O)c3ccnn3C)c(C)nc21 [MMV026356, CCn1ncc2c(NC3CCOCC3)c(CNC(=O)c4ccnn4C)c(C)nc12]",80%
14,"OCc1ccc(-c2cncc(Nc3cccc(Cl)c3)c2)cc1 [MMV026468, OCc1ccc(cc1)c2cncc(Nc3cccc(Cl)c3)c2]",88%
15,"CC(C)(C)CN1C(=O)C(c2ccccc2)(c2ccccc2)N=C1N [MMV026550, CC(C)(C)CN1C(=NC(C1=O)(c2ccccc2)c3ccccc3)N]",104%
16,"CC(C)(CN)c1nc(-c2ccc(Cl)c(O)c2)c(-c2ccnc(N)n2)[nH]1 [MMV030734, CC(C)(CN)c1nc(c2ccc(Cl)c(O)c2)c([nH]1)c3ccnc(N)n3]",33%
17,"CNC(=O)C1Cc2c([nH]c3cc(Cl)ccc23)C2(CCN(CCc3ccccc3)CC2)N1 (centres unmarked) [MMV031011, CNC(=O)C1Cc2c([nH]c3cc(Cl)ccc23)C4(CCN(CCc5ccccc5)CC4)N1]",106%
18,"FC(F)(F)c1cccc(-c2nc3c(NCc4ccncc4)nccc3[nH]2)c1 [MMV032967, FC(F)(F)c1cccc(c1)c2nc3c(NCc4ccncc4)nccc3[nH]2]",79%
19,"O=C1COCc2ccc(Br)cc2N1Cc1ccc(C(F)(F)F)cc1 [MMV032995, FC(F)(F)c1ccc(CN2C(=O)COCc3ccc(Br)cc23)cc1]",113%

row,Compound,viability at 10 µM
1,"c1ccc(Oc2ccc(-c3cc(N4CCOCC4)[nH]n3)cc2)cc1 [MMV045105, C1CN(CCO1)c2cc(n[nH]2)c3ccc(Oc4ccccc4)cc3]",33%
2,"COc1cc(C(F)(F)F)nc2ccc(C)c(N)c12 [MMV047015, COc1cc(nc2ccc(C)c(N)c12)C(F)(F)F]",113%
3,"N#Cc1ccc(-c2ccc(OCC(N)=O)cc2)cc1 [MMV053220, NC(=O)COc1ccc(cc1)c2ccc(cc2)C#N]",68%
4,"CC(=O)N1CCc2cc3nc(C)cc(C)c3cc21 [MMV054312, CC(=O)N1CCc2cc3nc(C)cc(C)c3cc12]",91%
5,"Cc1cc(C)nc(-n2nc(C)cc2Nc2ccccc2)n1 [MMV062221, Cc1cc(C)nc(n1)n2nc(C)cc2Nc3ccccc3]",103%
6,"Cc1nn(Cc2ccccc2)c(Cl)c1C(=O)NC1CCCCCC1 [MMV063404, Cc1nn(Cc2ccccc2)c(Cl)c1C(=O)NC3CCCCCC3]",96%
7,"FC(F)(F)c1nnc2ccc(Cl)nn12 [MMV069458, FC(F)(F)c1nnc2ccc(Cl)nn12]",100%
8,"O=C1N(Cc2cc3ccccc3s2)CC2CN(Cc3ccccc3)CCN12 (centres unmarked) [MMV084603, O=C1N(Cc2cc3ccccc3s2)CC4CN(Cc5ccccc5)CCN14]",99%
9,"O=C(Nc1cnc2ccccc2c1)c1cccc(-n2cnnn2)c1 [MMV084864, O=C(Nc1cnc2ccccc2c1)c3cccc(c3)n4cnnn4]",80%
10,"COc1cncc(-c2cncc(N3CCN(c4ccncc4)CC3)n2)c1 [MMV085071, COc1cncc(c1)c2cncc(n2)N3CCN(CC3)c4ccncc4]",79%
11,"O=C(C(Cc1c[nH]c2ccccc12)NS(=O)(=O)c1ccc(Cl)cc1)N1CCCCC1 (centres unmarked) [MMV085210, Clc1ccc(cc1)S(=O)(=O)NC(Cc2c[nH]c3ccccc23)C(=O)N4CCCCC4]",108%
12,"CCCNC(=O)N1CCC2(CC1)CC(=O)c1cc(C)ccc1O2 [MMV085230, CCCNC(=O)N1CCC2(CC1)CC(=O)c3cc(C)ccc3O2]",103%
13,"N#Cc1ccc(-c2cnc(N)c(-c3ccc(C(N)=O)cc3)n2)cc1 [MMV085499, NC(=O)c1ccc(cc1)c2nc(cnc2N)c3ccc(cc3)C#N]",31%
14,"O=C(Nc1nnc(-c2ccc(Cl)cc2)o1)c1cccc(C(F)(F)F)c1 [MMV102872, FC(F)(F)c1cccc(c1)C(=O)Nc2oc(nn2)c3ccc(Cl)cc3]",51%
15,"CCC(C)NC(=O)c1ccc(NC(=O)C2(c3ccccc3)CCCC2)cc1 (centres unmarked) [MMV146306, CCC(C)NC(=O)c1ccc(NC(=O)C2(CCCC2)c3ccccc3)cc1]",69%
16,"Cc1cc(Cl)ccc1NC(=O)CCc1ccc(S(=O)(=O)NCC(C)C)cc1 [MMV161996, CC(C)CNS(=O)(=O)c1ccc(CCC(=O)Nc2ccc(Cl)cc2C)cc1]",97%
17,"COc1ccc(C2(C(=O)Nc3ccc(Br)cc3)CCCC2)cc1 [MMV200748, COc1ccc(cc1)C2(CCCC2)C(=O)Nc3ccc(Br)cc3]",100%
18,"COc1ccc(OC(C)C(=O)Nc2ccc(Cl)cc2C)cc1 (centres unmarked) [MMV202458, COc1ccc(OC(C)C(=O)Nc2ccc(Cl)cc2C)cc1]",94%
